Measurements taken from ChEMBL document CHEMBL4706554 (Eur J Med Chem, 2020).
Calls of active or inactive are those of the source. The calls are words filed in the database; no cut-off is given here.

Experiments:
[1] = test system: SK-OV-3; assay: Cytotoxicity against human SK-OV-3 cells assessed as cell growth inhibition at 10 uM incubated for 48 hrs by SRB assay; type: functional, cell-based
[2] = test system: UACC-62; assay: Cytotoxicity against human UACC-62 cells assessed as cell growth inhibition at 10 uM incubated for 48 hrs by SRB assay; type: functional, cell-based
[3] = test system: HOP-62; assay: Cytotoxicity against human HOP-62 cells assessed as cell growth inhibition at 10 uM incubated for 48 hrs by SRB assay; type: functional, cell-based
[4] = test system: MDA-MB-435; assay: Cytotoxicity against human MDA-MB-435 cells assessed as cell growth inhibition at 10 uM incubated for 48 hrs by SRB assay; type: functional, cell-based
[5] = test system: SW-620; assay: Cytotoxicity against human SW-620 cells assessed as cell growth inhibition at 10 uM incubated for 48 hrs by SRB assay; type: functional, cell-based
[6] = test system: Malme-3M; assay: Cytotoxicity against human Malme-3M cells assessed as cell growth inhibition at 10 uM incubated for 48 hrs by SRB assay; type: functional, cell-based
[7] = test system: UACC-257; assay: Cytotoxicity against human UACC-257 cells assessed as cell growth inhibition at 10 uM incubated for 48 hrs by SRB assay; type: functional, cell-based
[8] = test system: SN12C; assay: Cytotoxicity against human SN12C cells assessed as cell growth inhibition at 10 uM incubated for 48 hrs by SRB assay; type: functional, cell-based
[9] = test system: SK-MEL-2; assay: Cytotoxicity against human SK-MEL-2 cells assessed as cell growth inhibition at 10 uM incubated for 48 hrs by SRB assay; type: functional, cell-based
[10] = test system: 786-0; assay: Cytotoxicity against human 786-0 cells assessed as cell growth inhibition at 10 uM incubated for 48 hrs by SRB assay; type: functional, cell-based
[11] = test system: U-251; assay: Cytotoxicity against human U251 cells assessed as cell growth inhibition at 10 uM incubated for 48 hrs by SRB assay; type: functional, cell-based
[12] = test system: SNB-19; assay: Cytotoxicity against human SNB-19 cells assessed as cell growth inhibition at 10 uM incubated for 48 hrs by SRB assay; type: functional, cell-based
[13] = test system: MDA-MB-231; assay: Cytotoxicity against human MDA-MB-231 cells assessed as cell growth inhibition at 10 uM incubated for 48 hrs by SRB assay; type: functional, cell-based
[14] = test system: RXF 393; assay: Cytotoxicity against human RXF 393 cells assessed as cell growth inhibition at 10 uM incubated for 48 hrs by SRB assay; type: functional, cell-based
[15] = test system: K562; assay: Cytotoxicity against human K562 cells assessed as cell growth inhibition at 10 uM incubated for 48 hrs by SRB assay; type: functional, cell-based
[16] = test system: OVCAR-4; assay: Cytotoxicity against human OVCAR-4 cells assessed as cell growth inhibition at 10 uM incubated for 48 hrs by SRB assay; type: functional, cell-based
[17] = test system: SK-MEL-5; assay: Cytotoxicity against human SK-MEL-5 cells assessed as cell growth inhibition at 10 uM incubated for 48 hrs by SRB assay; type: functional, cell-based
[18] = test system: A498; assay: Cytotoxicity against human A498 cells assessed as cell growth inhibition at 10 uM incubated for 48 hrs by SRB assay; type: functional, cell-based
[19] = test system: MCF7; assay: Cytotoxicity against human MCF7 cells assessed as cell growth inhibition at 10 uM incubated for 48 hrs by SRB assay; type: functional, cell-based
[20] = test system: Hs-578T; assay: Cytotoxicity against human Hs-578T cells assessed as cell growth inhibition at 10 uM incubated for 48 hrs by SRB assay; type: functional, cell-based
[21] = test system: UO-31; assay: Cytotoxicity against human UO-31 cells assessed as cell growth inhibition at 10 uM incubated for 48 hrs by SRB assay; type: functional, cell-based
[22] = test system: SNB-75; assay: Cytotoxicity against human SNB-75 cells assessed as cell growth inhibition at 10 uM incubated for 48 hrs by SRB assay; type: functional, cell-based
[23] = test system: T47D; assay: Cytotoxicity against human T47D cells assessed as cell growth inhibition at 10 uM incubated for 48 hrs by SRB assay; type: functional, cell-based
[24] = test system: NCI-H23; assay: Cytotoxicity against human NCI-H23 cells assessed as cell growth inhibition at 10 uM incubated for 48 hrs by SRB assay; type: functional, cell-based
[25] = test system: HCT-116; assay: Cytotoxicity against human HCT-116 cells assessed as cell growth inhibition at 10 uM incubated for 48 hrs by SRB assay; type: functional, cell-based
[26] = test system: MDA-MB-468; assay: Cytotoxicity against human MDA-MB-468 cells assessed as cell growth inhibition at 10 uM incubated for 48 hrs by SRB assay; type: functional, cell-based
[27] = test system: OVCAR-3; assay: Cytotoxicity against human OVCAR-3 cells assessed as cell growth inhibition at 10 uM incubated for 48 hrs by SRB assay; type: functional, cell-based
[28] = test system: CCRF-CEM; assay: Cytotoxicity against human CCRF-CEM cells assessed as cell growth inhibition at 10 uM incubated for 48 hrs by SRB assay; type: functional, cell-based
[29] = test system: CAKI-1; assay: Cytotoxicity against human CAK1 cells assessed as cell growth inhibition at 10 uM incubated for 48 hrs by SRB assay; type: functional, cell-based
[30] = test system: HT-29; assay: Cytotoxicity against human HT-29 cells assessed as cell growth inhibition at 10 uM incubated for 48 hrs by SRB assay; type: functional, cell-based
[31] = test system: LOX IMVI; assay: Cytotoxicity against human LOX IMVI cells assessed as cell growth inhibition at 10 uM incubated for 48 hrs by SRB assay; type: functional, cell-based
[32] = test system: DU-145; assay: Cytotoxicity against human DU-145 cells assessed as cell growth inhibition at 10 uM incubated for 48 hrs by SRB assay; type: functional, cell-based
[33] = test system: SK-MEL-28; assay: Cytotoxicity against human SK-MEL-28 cells assessed as cell growth inhibition at 10 uM incubated for 48 hrs by SRB assay; type: functional, cell-based
[34] = test system: BT-549; assay: Cytotoxicity against human BT-549 cells assessed as cell growth inhibition at 10 uM incubated for 48 hrs by SRB assay; type: functional, cell-based
[35] = test system: KM12; assay: Cytotoxicity against human KM12 cells assessed as cell growth inhibition at 10 uM incubated for 48 hrs by SRB assay; type: functional, cell-based
[36] = test system: A549; assay: Cytotoxicity against human A549 cells assessed as cell growth inhibition at 10 uM incubated for 48 hrs by SRB assay; type: functional, cell-based
[37] = biological target: Homeodomain-interacting protein kinase 1 (Homo sapiens) (UniProt Q86Z02); assay: Inhibition of wild-type human partial length HIPK1 (M146 to I555 residues) expressed in mammalian expression system at 1 uM by Kinomescan method
Homeodomain-interacting protein kinase 1 (Homo sapiens), sequence (Q86Z02 whole entry, looked up, the tested form may be a part): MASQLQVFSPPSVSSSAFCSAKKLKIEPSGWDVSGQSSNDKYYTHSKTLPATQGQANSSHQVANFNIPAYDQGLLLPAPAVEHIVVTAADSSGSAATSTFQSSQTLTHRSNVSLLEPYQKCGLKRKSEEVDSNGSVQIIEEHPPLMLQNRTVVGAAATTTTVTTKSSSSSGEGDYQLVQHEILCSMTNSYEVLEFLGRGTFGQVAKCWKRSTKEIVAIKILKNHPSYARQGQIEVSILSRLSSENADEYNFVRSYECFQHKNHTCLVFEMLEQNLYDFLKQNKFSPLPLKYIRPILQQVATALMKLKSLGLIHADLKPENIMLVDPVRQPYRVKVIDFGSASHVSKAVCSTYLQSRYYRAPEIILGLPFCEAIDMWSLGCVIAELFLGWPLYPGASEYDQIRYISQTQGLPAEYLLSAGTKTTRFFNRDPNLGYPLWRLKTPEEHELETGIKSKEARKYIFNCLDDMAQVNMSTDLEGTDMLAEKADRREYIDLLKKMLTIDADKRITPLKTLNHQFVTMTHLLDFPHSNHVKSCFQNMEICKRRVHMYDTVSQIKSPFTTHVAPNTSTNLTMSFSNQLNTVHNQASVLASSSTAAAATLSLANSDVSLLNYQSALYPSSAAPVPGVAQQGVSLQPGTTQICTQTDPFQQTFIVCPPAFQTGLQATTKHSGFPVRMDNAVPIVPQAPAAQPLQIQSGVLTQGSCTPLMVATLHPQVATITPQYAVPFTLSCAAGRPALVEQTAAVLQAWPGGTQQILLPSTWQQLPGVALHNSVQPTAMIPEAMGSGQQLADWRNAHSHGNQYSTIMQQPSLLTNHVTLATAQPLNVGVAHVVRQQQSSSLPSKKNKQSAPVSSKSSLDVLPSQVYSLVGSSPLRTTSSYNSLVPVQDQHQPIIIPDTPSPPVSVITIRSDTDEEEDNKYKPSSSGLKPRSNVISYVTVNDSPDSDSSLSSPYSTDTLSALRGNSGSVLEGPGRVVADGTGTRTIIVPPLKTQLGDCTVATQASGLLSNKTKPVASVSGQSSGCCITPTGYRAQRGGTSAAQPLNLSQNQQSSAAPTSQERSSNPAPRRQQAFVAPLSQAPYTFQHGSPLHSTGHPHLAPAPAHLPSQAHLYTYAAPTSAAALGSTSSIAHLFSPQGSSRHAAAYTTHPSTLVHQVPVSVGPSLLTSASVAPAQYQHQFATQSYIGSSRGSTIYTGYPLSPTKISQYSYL

[38] = test system: NCI-H322M; assay: Cytotoxicity against human NCI-H322M cells assessed as cell growth inhibition at 10 uM incubated for 48 hrs by SRB assay; type: functional, cell-based
[39] = test system: NCI/ADR-RES; assay: Cytotoxicity against human NCI/ADR-RES cells assessed as cell growth inhibition at 10 uM incubated for 48 hrs by SRB assay; type: functional, cell-based
[40] = test system: HCT-15; assay: Cytotoxicity against human HCT-15 cells assessed as cell growth inhibition at 10 uM incubated for 48 hrs by SRB assay; type: functional, cell-based
[41] = test system: NCI-H226; assay: Cytotoxicity against human NCI-H226 cells assessed as cell growth inhibition at 10 uM incubated for 48 hrs by SRB assay; type: functional, cell-based
[42] = test system: SR; assay: Cytotoxicity against human SR cells assessed as cell growth inhibition at 10 uM incubated for 48 hrs by SRB assay; type: functional, cell-based
[43] = test system: NCI-H522; assay: Cytotoxicity against human NCI-H522 cells assessed as cell growth inhibition at 10 uM incubated for 48 hrs by SRB assay; type: functional, cell-based
[44] = test system: MOLT-4; assay: Cytotoxicity against human MOLT-4 cells assessed as cell growth inhibition at 10 uM incubated for 48 hrs by SRB assay; type: functional, cell-based
[45] = test system: SF-268; assay: Cytotoxicity against human SF-268 cells assessed as cell growth inhibition at 10 uM incubated for 48 hrs by SRB assay; type: functional, cell-based
[46] = test system: IGROV-1; assay: Cytotoxicity against human IGROV-1 cells assessed as cell growth inhibition at 10 uM incubated for 48 hrs by SRB assay; type: functional, cell-based
[47] = test system: EKVX; assay: Cytotoxicity against human EKVX cells assessed as cell growth inhibition at 10 uM incubated for 48 hrs by SRB assay; type: functional, cell-based
[48] = test system: HL-60(TB); assay: Cytotoxicity against human HL-60(TB) cells assessed as cell growth inhibition at 10 uM incubated for 48 hrs by SRB assay; type: functional, cell-based
[49] = test system: COLO 205; assay: Cytotoxicity against human COLO 205 cells assessed as cell growth inhibition at 10 uM incubated for 48 hrs by SRB assay; type: functional, cell-based
[50] = test system: OVCAR-8; assay: Cytotoxicity against human OVCAR-8 cells assessed as cell growth inhibition at 10 uM incubated for 48 hrs by SRB assay; type: functional, cell-based
[51] = test system: ACHN; assay: Cytotoxicity against human ACHN cells assessed as cell growth inhibition at 10 uM incubated for 48 hrs by SRB assay; type: functional, cell-based
[52] = test system: HCC 2998; assay: Cytotoxicity against human HCC 2998 cells assessed as cell growth inhibition at 10 uM incubated for 48 hrs by SRB assay; type: functional, cell-based
[53] = test system: PC-3; assay: Cytotoxicity against human PC-3 cells assessed as cell growth inhibition at 10 uM incubated for 48 hrs by SRB assay; type: functional, cell-based
[54] = biological target: Dual specificity tyrosine-phosphorylation-regulated kinase 1A (Homo sapiens) (UniProt Q13627); assay: Inhibition of wild-type human partial length DYRK1A (H129 to S509 residues) expressed in mammalian expression system at 1 uM by Kinomescan method
[55] = test system: RPMI-8226; assay: Cytotoxicity against human RPMI-8226 cells assessed as cell growth inhibition at 10 uM incubated for 48 hrs by SRB assay; type: functional, cell-based
[56] = test system: M14; assay: Cytotoxicity against human M14 cells assessed as cell growth inhibition at 10 uM incubated for 48 hrs by SRB assay; type: functional, cell-based
[57] = test system: SF-539; assay: Cytotoxicity against human SF-539 cells assessed as cell growth inhibition at 10 uM incubated for 48 hrs by SRB assay; type: functional, cell-based
[58] = test system: HOP-92; assay: Cytotoxicity against human HOP-92 cells assessed as cell growth inhibition at 10 uM incubated for 48 hrs by SRB assay; type: functional, cell-based
[59] = test system: TK-10; assay: Cytotoxicity against human TK-10 cells assessed as cell growth inhibition at 10 uM incubated for 48 hrs by SRB assay; type: functional, cell-based
[60] = test system: OVCAR-5; assay: Cytotoxicity against human OVCAR-5 cells assessed as cell growth inhibition at 10 uM incubated for 48 hrs by SRB assay; type: functional, cell-based
[61] = test system: NCI-H460; assay: Cytotoxicity against human NCI-H460 cells assessed as cell growth inhibition at 10 uM incubated for 48 hrs by SRB assay; type: functional, cell-based
[62] = test system: SF-295; assay: Cytotoxicity against human SF-295 cells assessed as cell growth inhibition at 10 uM incubated for 48 hrs by SRB assay; type: functional, cell-based
[63] = biological target: T1, Casein kinase II subunit alpha' (Homo sapiens, UniProt P19784); assay: Displacement of fluorescent tracer from full-length human C-terminal NanoLuc-tagged CK2alpha' expressed in HEK293T permeabilized cells measured after 2 hrs by NanoBRET assay; type: cell-based
T1 sequence (P19784 whole entry): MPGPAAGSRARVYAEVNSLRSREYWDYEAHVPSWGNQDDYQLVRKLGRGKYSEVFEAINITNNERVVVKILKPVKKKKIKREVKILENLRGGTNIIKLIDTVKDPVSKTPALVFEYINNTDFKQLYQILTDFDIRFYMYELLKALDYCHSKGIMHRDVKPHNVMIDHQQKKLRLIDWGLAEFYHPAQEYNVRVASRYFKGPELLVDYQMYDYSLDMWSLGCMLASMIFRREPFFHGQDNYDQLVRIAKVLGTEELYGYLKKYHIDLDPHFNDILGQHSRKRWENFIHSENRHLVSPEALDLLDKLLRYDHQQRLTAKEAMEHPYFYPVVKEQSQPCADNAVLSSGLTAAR

[64] = biological target: T2, Casein kinase II subunit alpha (Homo sapiens, UniProt P68400); assay: Displacement of fluorescent tracer from full-length human C-terminal NanoLuc-tagged CK2alpha expressed in HEK293T permeabilized cells measured after 2 hrs by NanoBRET assay; type: cell-based
T2 sequence (P68400 whole entry): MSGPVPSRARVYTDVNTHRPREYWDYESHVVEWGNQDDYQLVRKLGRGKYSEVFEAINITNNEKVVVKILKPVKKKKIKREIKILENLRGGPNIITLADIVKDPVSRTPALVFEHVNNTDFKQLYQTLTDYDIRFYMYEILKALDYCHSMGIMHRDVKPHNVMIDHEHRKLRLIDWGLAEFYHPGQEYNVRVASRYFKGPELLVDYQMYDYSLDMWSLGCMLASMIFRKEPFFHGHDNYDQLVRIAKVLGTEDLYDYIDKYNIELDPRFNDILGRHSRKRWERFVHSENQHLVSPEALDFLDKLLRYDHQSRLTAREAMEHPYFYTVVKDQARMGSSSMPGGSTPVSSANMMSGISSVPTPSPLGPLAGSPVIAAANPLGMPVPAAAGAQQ

[65] = biological target: T1, Casein kinase II subunit alpha'; assay: Displacement of fluorescent tracer from full-length human C-terminal NanoLuc-tagged CK2alpha' expressed in HEK293T cells measured after 2 hrs by NanoBRET assay; type: cell-based
[66] = biological target: T2, Casein kinase II subunit alpha; assay: Displacement of fluorescent tracer from full-length human C-terminal NanoLuc-tagged CK2alpha expressed in HEK293T cells measured after 2 hrs by NanoBRET assay; type: cell-based

CC(C)(C)OC(=O)N(CCOCCO)c1ccn2ncc(-c3ccc(C(=O)O)c(O)c3)c2n1
Activity [1]: inactive | Activity [2]: inactive | Activity [3]: inactive | Activity [4]: inactive | Activity [5]: inactive | Activity [6]: inactive | Activity [7]: inactive | Activity [8]: inactive | Activity [9]: inactive | Activity [10]: inactive | Activity [11]: inactive | Activity [12]: inactive | Activity [13]: inactive | Activity [14]: inactive | Activity [15]: inactive | Activity [16]: inactive | Activity [17]: inactive | Activity [18]: inactive | Activity [19]: inactive | Activity [20]: inactive | Activity [21]: inactive | Activity [22]: inactive | Activity [23]: inactive | Activity [24]: inactive | Activity [25]: inactive | Activity [26]: inactive | Activity [27]: inactive | Activity [28]: inactive | Activity [29]: inactive | Activity [30]: inactive | Activity [31]: inactive | Activity [32]: inactive | Activity [33]: inactive | Activity [34]: inactive | Activity [35]: inactive | Activity [36]: inactive | inhibition [37]: inactive | Activity [38]: inactive | Activity [39]: inactive | Activity [40]: inactive | Activity [41]: inactive | Activity [42]: inactive | Activity [43]: inactive | Activity [44]: inactive | Activity [45]: inactive | Activity [46]: inactive | Activity [47]: inactive | Activity [48]: inactive | Activity [49]: inactive | Activity [50]: inactive | Activity [51]: inactive | Activity [52]: inactive | Activity [53]: inactive | inhibition [54]: inactive | Activity [55]: inactive | Activity [56]: inactive | Activity [57]: inactive | Activity [58]: inactive | Activity [59]: inactive | Activity [60]: inactive | Activity [61]: inactive | Activity [62]: inactive

O=C(O)c1ccc2cc1OCCOCCNc1ccn3ncc-2c3n1
IC50 [63]: 0.303 µM | IC50 [64]: 0.075 µM

COC(=O)c1ccc(-c2cnn3ccc(N(CCOCCO)C(=O)OC(C)(C)C)nc23)cc1O
IC50 [65]: > 50 µM | IC50 [66]: > 50 µM | IC50 [63]: > 50 µM | IC50 [64]: 7.52 µM
